Values belong to the compound of their own block, whether it stands above or below them. Non-standard residues stand in square brackets, D forms with d. Residues, ends and D or L forms follow the SMILES beside them. No end group written: not given here.
Assays:
[1] = test system: MCP-1 induced THP-1 migration; test: THP-1 trans-well migration assay, MCP-1 as chemoattractant; type: cell-based, human
Experimental: (§1) To determine whether an agent inhibits a chemokine-induced activity, such as macrophage recruitment, varying amounts of the agent are mixed with cells in the presence of a known chemoattractant. For example, a range of known concentrations of an agent, e.g., a chemokine peptide, is incubated with a defined number (e.g., 10^4 - […]) of human THP-1 monocyte cells in individual wells of the top compartment of a trans-well plate. Chemokine (such as MCP-1, MIP1α, IL8 or SDF-1α), at a concentration known to cause significant migration of THP-1 cells in the trans-well migration assay, is placed in the lower compartment (Figure 1). Cells are then incubated at 37°C for a period sufficient to allow migration, e.g., 4 hours. After incubation, the cells are gently removed from the top of the filter with a pipette, 20 µl of 20 mM EDTA in simple PBS is added into each top well, and incubated for 20 minutes at 4°C. The filter is carefully flushed with media using a gentle flow, and removed. A standard curve consisting of a two-fold dilution series of THP-1 cells (in 29 µl) is prepared to accurately quantify the number of cells that have migrated. Migrated cells are stained with 3 µl of MTT stock dye solution which is added directly into each well (5 mg/ml in RPMI-1640 without phenol red, Sigma Chemical Co.) and incubated at 37°C for 4 hours. The media is carefully aspirated from each well, and the converted dye is solubilized by 20 µl of DMSO. Absorbance of converted dye is measured at a wavelength of 595 nm using an ELISA plate reader. The number of migrated cells in each well is then determined by interpolation of the standard curve (see also Imai et al.,J. Biol. Chem., 272, 15036 (1997)).
Any method suitable for counting cells can be used, for example, counting with a hemocytometer, incubation of the cells with MTT (see above), or FACS analysis. A negative control assay is also performed, using TGF-β or another non-chemokine chemoattractant (e.g., IL1β or TNFα). To assess whether the agent is cytotoxic, the same concentrations of agent are incubated with THP-1 cells. Agents which 1) are not cytotoxic at levels which inhibit migration, 2) are ineffective at inhibiting the negative control-induced migration, and 3) reduce or inhibit chemokine-induced THP-1 migration, are agents which fall within the scope of the invention.
For this assay, THP-1 cells were maintained at a density of 4 × 10^5 cells per ml in RPMI-1640 supplemented with 10% fetal calf serum + 20 µM 2-mercaptoethanol. Chemotaxis was induced in a 96-well disposable chemotaxis chamber fitted with a 5 µM polycarbonate filter (PVP free, ChemoTX, Neuroprobe Inc., Cabin John). […] The framed filter was aligned with the holes in the corner of the filter frame and placed over the wells.
(§2) Five × 10^4 THP-1 cells in 25 µl of RPMI-1640 were added to the upper compartment. Peptides were dissolved in Milli Q water and then serially diluted in culture medium. In most cases, the serially diluted peptides were added to the upper compartment of the chemotaxis chamber. The chamber was incubated at 37°C in a humidified atmosphere of 5% CO2 for 4 hours.
After incubation, the cells were gently removed from the top of the filter with a pipette, 20 µl of 20 mM EDTA in PBS was added into each top well, and the mixture was incubated for 20 minutes at 4°C. The filter was then carefully flushed with media using a gentle flow, and removed. A standard curve was prepared to accurately quantify the number of THP-1 cells that had migrated. The curve was based on a two-fold dilution series of THP-1 cells (top standard 100,000 cells in 29 µl). Cells which had migrated, and in separate wells, the cells in the standards, were stained with 3 µl of MTT stock solution which was added directly into each well (5 mg/ml in RPMI 1640 without phenol red, Sigma Chemical Co.) and incubated at 37°C for 4 hours. The media was carefully aspirated from each well, and the converted dye was solubilized by 20 µl of DMSO. […]

[2] = test system: SDF-1α induced THP-1 migration; test: THP-1 trans-well migration assay, SDF-1α as chemoattractant; type: cell-based, human; settings: inhibition of THP-1 migration; n.s./ns = not statistically significant
Experimental: as §1
(§3) For this assay, THP-1 cells were maintained at a density of 4 × 10^5 cells per ml in RPMI-1640 supplemented with 10% fetal calf serum + 20 µM 2-mercaptoethanol. Chemotaxis was induced in a 96-well disposable chemotaxis chamber fitted with a 5 µM polycarbonate filter (PVP free, ChemoTX, Neuroprobe Inc., Cabin John). Twenty-nine µl of chemoattractant (recombinant human chemokine; 50 ng/ml, i.e., 5.9 nM) or control (100 ng/ml TGFβ) was added to the lower compartment of each well. The framed filter was aligned with the holes in the corner of the filter frame and placed over the wells.
as §2
(§4) After incubation, the cells were gently removed from the top of the filter with a pipette, 20 µl of 20 mM EDTA in PBS was added into each top well, and the mixture was incubated for 20 minutes at 4°C. The filter was then carefully flushed with media using a gentle flow, and removed. A standard curve was prepared to accurately quantify the number of THP-1 cells that had migrated. The curve was based on a two-fold dilution series of THP-1 cells (top standard 100,000 cells in 29 µl). Cells which had migrated, and in separate wells, the cells in the standards, were stained with 3 µl of MTT stock solution which was added directly into each well (5 mg/ml in RPMI 1640 without phenol red, Sigma Chemical Co.) and incubated at 37°C for 4 hours. The media was carefully aspirated from each well, and the converted dye was solubilized by 20 µl of DMSO. Absorbance of converted dye was measured at a wavelength of 595 nm using an ELISA plate reader. The number of cells that had migrated in each well was determined by interpolation of the standard curve.
(§5) To investigate the receptor specificity of peptide 3 inhibition, the ED50 was determined for peptide 3(1-12)[MCP-1] (SEQ ID NO:1) inhibition of THP-1 migration induced by chemokines which signal through different receptors than MCP-1 receptors. […]

gp120 = settings: ns = not significant; >100 = ED50 not determined
Experimental: Binding assays. Cells (either Jurkat T-cells or THP-1 cells) were grown in RPMI 1640 medium supplemented with 10% fetal calf serum, 2 mM glutamine, 20 µM β-mercaptoethanol, 100 U/ml penicillin and 100 µg/ml streptomycin and maintained between 2 × 10^5 and 1 × 10^6 cells/ml. Prior to performing a binding assay, cells were spun out (100 × g; 4 minutes) and washed 3 times in ice-cold PBS. A volume of cell suspension in PBS containing 10^6 cells (for Jurkat cells) or 4 × 10^5 cells (for THP-1 cells) was pipetted into each well of a V-bottom 96-well plate (Gibco BRL) and spun out (100 x g; 4 minutes). Triplicate wells were then resuspended in 100 µl binding medium (PBS pH 7.2 containing 0.1% fatty acid-free bovine serum albumin (BSA)) containing labeled peptide in the presence or absence of various concentrations of unlabeled peptide. The plate was then incubated on ice for 90 minutes. Cells were washed 3 times with 380 µl of ice-cold PBS, spinning out the cells each time (100 × g; 4 minutes), and resuspended in 100 µl binding medium containing streptavidin-peroxidase (Amersham International) at 1:1000 dilution. Cells were incubated for a further 15 minutes on ice to allow labeling of any bound biotinylated peptide, then washed 4 times as above. Cells were then incubated with 200 µl TMB substrate (K-Blue, Bionostics) for 20 minutes at room temperature, and the reaction stopped by addition of 50 µl 2 M HCl. The plate was spun (3,000 × g; 3 minutes) and 200 µl of the colored product was transferred to an empty 96-well ELISA plate and the absorbance at 450 nm determined. For each assay, the absorbance of a blank reaction (no peptide added) was subtracted from all readings before further analysis.
Binding experiments with labeled peptide 2 were performed with 10 nM labeled peptide in each reaction.

[3] = test system: MIP1α induced THP-1 migration; test: THP-1 trans-well migration assay, MIP1α as chemoattractant; type: cell-based, human; settings: inhibition of THP-1 migration; n.s./ns = not statistically significant
Experimental: as §1, §3, §2, §4, §5

[4] = biological target: T1, Duffy Antigen Receptor for Chemokines (DARC) (Homo sapiens, UniProt Q16570); test: DARC binding: competition with 125I-MCP-1 on red blood cells; settings: for DARC binding (µM): ns = not significantly different from control, >100 = not determined
T1 sequence (Q16570 1-336): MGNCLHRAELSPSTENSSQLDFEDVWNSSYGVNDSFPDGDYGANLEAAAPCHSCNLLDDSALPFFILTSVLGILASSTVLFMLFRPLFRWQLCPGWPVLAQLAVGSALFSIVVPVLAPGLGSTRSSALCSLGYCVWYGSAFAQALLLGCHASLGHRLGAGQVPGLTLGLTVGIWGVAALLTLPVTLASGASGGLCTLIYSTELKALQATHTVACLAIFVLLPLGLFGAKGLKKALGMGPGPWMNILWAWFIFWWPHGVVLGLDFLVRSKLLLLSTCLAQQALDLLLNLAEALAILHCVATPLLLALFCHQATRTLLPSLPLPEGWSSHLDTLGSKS

[5] = test system: chemokine-induced THP-1 migration; test: THP-1 trans-well migration assay, several chemokines together (averages, selectivity, pan-chemokine statements); type: cell-based, human; settings: average inhibitory ED50 for THP-1 migration induced by each of the chemokines
Experimental: To determine whether an agent inhibits a chemokine-induced activity, such as macrophage recruitment, varying amounts of the agent are mixed with cells in the presence of a known chemoattractant. […] Chemokine (such as MCP-1, MIP1α, IL8 or SDF-1α), at a concentration known to cause significant migration of THP-1 cells in the trans-well migration assay, is placed in the lower compartment (Figure 1). Cells are then incubated at 37°C for a period sufficient to allow migration, e.g., 4 hours. After incubation, the cells are gently removed from the top of the filter with a pipette, 20 µl of 20 mM EDTA in simple PBS is added into each top well, and incubated for 20 minutes at 4°C. The filter is carefully flushed with media using a gentle flow, and removed. […] The media is carefully aspirated from each well, and the converted dye is solubilized by 20 µl of DMSO.
Chemotaxis was induced in a 96-well disposable chemotaxis chamber fitted with a 5 µM polycarbonate filter (PVP free, ChemoTX, Neuroprobe Inc., Cabin John). […] The framed filter was aligned with the holes in the corner of the filter frame and placed over the wells.
Peptides were dissolved in Milli Q water and then serially diluted in culture medium. In most cases, the serially diluted peptides were added to the upper compartment of the chemotaxis chamber. The chamber was incubated at 37°C in a humidified atmosphere of 5% CO2 for 4 hours.
After incubation, the cells were gently removed from the top of the filter with a pipette, 20 µl of 20 mM EDTA in PBS was added into each top well, and the mixture was incubated for 20 minutes at 4°C. The filter was then carefully flushed with media using a gentle flow, and removed. […] The curve was based on a two-fold dilution series of THP-1 cells (top standard 100,000 cells in 29 µl). […] The media was carefully aspirated from each well, and the converted dye was solubilized by 20 µl of DMSO.
Representative chemokines included […] ("CC"), MIP-1α and RANTES, and two alpha-chemokines ("CXC"), IL-8 and SDF-1α. Additionally, to determine the specificity ofpeptide 3(1-12)[MCP-1]
The number of pluses is a qualitative indicating of the activity of each peptide in each assay.

DARC binding (µM) [4]: ns
Compound: CC(C)[C@@H](N)C(=O)NCC(=O)N1CCC[C@@H]1C(=O)N[C@H](CCCCN)C(=O)N[C@H](CO)C(=O)N[C@H](CS)C(=O)N[C@H](CCC(N)=O)C(=O)N[C@H](CO)C(=O)N[C@H](CO)C(=O)N[C@@H](C(=O)N[C@H](CCC(=O)O)C(=O)N[C@H](Cc1ccccc1)C(=O)N[C@H](Cc1ccc(O)cc1)C(=O)N[C@H](CC(=O)O)C(=O)O)[C@H](C)O [vgpkscqsstefyd] (H-[dV]G[dP][dK][dS][dC][dQ][dS][dS][dT][dE][dF][dY][dD]-OH)

Duffy selectivity / DARC specificity ratio ([4]; estimated ka for binding to red blood cells divided by average inhibitory ED50): 4.59
Compound: CQVWKQKPDAC [LRD-Cys13Leu4Ile11pep3[3-12]]
Average ED50 [5]: 1000 nM

DARC binding (µM) [4]: ns
Compound: CSKPGV [CSKPGV]

DARC binding (µM) [4]: ns
Compound: DYFETSSQCSKPGV [Pep2[MIP1α]]

DARC binding (µM) [4]: ns
Compound: TSSKC [TSSKC]

The remaining lines, values behind:

Compound: CC[C@@H](C)[C@@H](NC(=O)[C@H](NC(=O)[C@@H](CO)NC(=O)[C@@H](CO)NC(=O)[C@@H](CCCCN)NC(=O)[C@@H](CS)NC(=O)[C@H]1CCCN1C(=O)[C@@H](CCCCN)NC(=O)[C@@H](CCC(=O)O)NC(=O)[C@@H](C)NC(=O)[C@H](N)C(C)C)[C@H](C)O)C(=O)N[C@H](CCCNC(=N)N)C(=O)N[C@H](CCCNC(=N)N)C(=O)N[C@H](Cc1ccc(O)cc1)C(=O)N[C@H](CO)C(=O)O [LRD peptide 2(1-15)[MCP-1], Vaekpcksstirrys] (H-[dV][dA][dE][dK][dP][dC][dK][dS][dS][dT][dI][dR][dR][dY][dS]-OH; N-terminus and C-terminus assumed)
ED50 (µM) versus MCP-1 ([1]; inhibition of THP-1 migration, n.s./ns = not statistically significant): ns | ED50 (µM) versus SDF-1α [2]: ns | gp120 ED-50 (gp120): 3 µM | ED50 (µM) versus MIP1α [3]: ns

Compound: CLDPKQKWIQC [unlabeled peptide, non-labeled version of the biotinylated peptide]
ED50 for inhibition of MCP-1 induced migration ([1]; MCP-1 at 100 ng/ml in RPMI 1640 + 10% FCS, 4 hours, 5 µm filter): about 9 µM

Compound: DYFETSSQC
DARC binding (µM) [4]: ns

Compound: SYRRI [SYRRI]
DARC binding (µM) [4]: ns

Source: patent publication EP2386565A2, “Compounds and methods to inhibit or augment an inflammatory response” (Cambridge Enterprise Ltd., priority 1999, dated 2000)
